Laboratory results as given in patent publication US7122558B2 (priority 2000, dated 2006).
Counter-ions that a name gives are not always drawn.

Molecular target: T1, human muscarinic receptors M3 (Homo sapiens, UniProt P20309)
T1 construct: expressed in transfected cells; host or cells: CHO-K1 (chinese hamster ovary-K1), stably transfected; membrane preparations
Experiment: biochemical
Format: binding
Conditions: for inhibition at 0.1 µM: read-out: % INHIBITION concentration: 1.00E−07 M; for inhibition at 0.01 µM: read-out: % INHIBITION concentration: 1.00E−08 M

T1 sequence (P20309 whole entry): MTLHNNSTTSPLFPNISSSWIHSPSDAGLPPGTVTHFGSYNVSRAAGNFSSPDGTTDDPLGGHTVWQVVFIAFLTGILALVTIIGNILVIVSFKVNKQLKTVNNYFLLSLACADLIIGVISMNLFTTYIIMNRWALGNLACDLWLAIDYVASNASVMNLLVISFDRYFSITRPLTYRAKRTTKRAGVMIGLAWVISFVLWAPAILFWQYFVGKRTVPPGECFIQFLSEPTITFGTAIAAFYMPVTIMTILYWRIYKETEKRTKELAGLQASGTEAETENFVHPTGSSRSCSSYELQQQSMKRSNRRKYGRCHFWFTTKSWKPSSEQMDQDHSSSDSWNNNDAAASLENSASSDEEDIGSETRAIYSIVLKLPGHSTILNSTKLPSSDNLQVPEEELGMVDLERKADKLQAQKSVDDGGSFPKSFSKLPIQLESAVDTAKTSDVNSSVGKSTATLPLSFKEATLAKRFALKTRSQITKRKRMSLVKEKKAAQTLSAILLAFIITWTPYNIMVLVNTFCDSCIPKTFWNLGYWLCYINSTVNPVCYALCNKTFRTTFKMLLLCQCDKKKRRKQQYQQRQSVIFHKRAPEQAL

With `O=C(O[C@H]1C[N+]2(CCc3ccccc3)CCC1CC2)[C@](O)(c1ccccc1)C1CCCCC1` [Example 70, (3R)-3-[(2R)-2-Cyclohexyl-2-hydroxy-2-phenylacetoxy]-1-phenethyl-1-azoniabicyclo[2.2.2]octane trifluoroacetate] the inhibition at 0.1 µM was 71.2% and the inhibition at 0.01 µM was 50%.

Work on `O=C(O[C@H]1C[N+]2(CCc3ccccc3)CCC1CC2)[C@](O)(c1ccco1)C1CCCCC1` [Example 80, (3R)-3-[(2R)-2-Cyclohexyl-2-fur-2-yl-2-hydroxyacetoxy]-1-phenethyl-1-azoniabicyclo[2.2.2]octane trifluoroacetate] yielded an inhibition at 0.1 µM of 72.4% and an inhibition at 0.01 µM of 55.8%.

Work on `O=C(O[C@H]1C[N+]2(CCCc3ccccc3)CCC1CC2)[C@](O)(c1ccco1)C1CCCCC1` [Example 81, (3R)-3-[(2R)-2-Cyclohexyl-2-fur-2-yl-2-hydroxyacetoxy]-1-(3-phenylpropyl)-1-azoniabicyclo[2.2.2]octane trifluoroacetate] yielded an inhibition at 0.1 µM of 70.1% and an inhibition at 0.01 µM of 45.4%.

`O=C(O[C@H]1C[N+]2(CCCOc3ccccc3)CCC1CC2)[C@](O)(c1ccccc1)C1CCCC1` [Example 82, (3R)-3-[(2R)-2-Cyclopentyl-2-hydroxy-2-phenylacetoxy]-1-(3-phenoxypropyl)-1-azoniabicyclo[2.2.2]octane trifluoroacetate] was tested, and the inhibition at 0.1 µM was 70.6% and the inhibition at 0.01 µM was 55.3%.

`O=C(O[C@H]1C[N+]2(CCc3ccccc3)CCC1CC2)[C@](O)(c1ccccc1)C1CCCC1` [Example 83, (3R)-3-[(2R)-2-Cyclopentyl-2-hydroxy-2-phenylacetoxy]-1-phenethyl-1-azoniabicyclo[2.2.2]octane trifluoroacetate] gave an inhibition at 0.1 µM of 72.7% and an inhibition at 0.01 µM of 60.3%.

With `O=C(O[C@H]1C[N+]2(CCCSc3ccccc3)CCC1CC2)[C@](O)(c1ccccc1)C1CCCC1` [Example 84, (3R)-3-[(2R)-2-Cyclopentyl-2-hydroxy-2-phenylacetoxy]-1-(3-phenylsulfanylpropyl)-1-azoniabicyclo[2.2.2]octane trifluoroacetate] the inhibition at 0.1 µM was 68.3% and the inhibition at 0.01 µM was 41%.

In the case of `O=C(O[C@H]1C[N+]2(CCc3ccccc3)CCC1CC2)[C@@](O)(c1ccccc1)C1CCCC1` [Example 86, (3R)-3-[(2S)-2-Cyclopentyl-2-hydroxy-2-phenylacetoxy]-1-phenethyl-1-azoniabicyclo[2.2.2]octane trifluoroacetate], the inhibition at 0.1 µM was 68.2% and the inhibition at 0.01 µM was 37.2%.

`O=C(O[C@H]1C[N+]2(CCCOc3ccccc3)CCC1CC2)[C@](O)(c1cccs1)C1CCCCC1` [Example 88, (3R)-3-[(2S)-2-Cyclohexyl-2-hydroxy-2-thien-2-ylacetoxy]-1-(3-phenoxypropyl)-1-azoniabicyclo[2.2.2]octane trifluoroacetate] gave an inhibition at 0.1 µM of 65.5% and an inhibition at 0.01 µM of 35.7%.

Work on `O=C(O[C@H]1C[N+]2(CCc3ccccc3)CCC1CC2)[C@](O)(c1cccs1)C1CCCCC1` [Example 89, (3R)-3-[(2S)-2-Cyclohexyl-2-hydroxy-2-thien-2-ylacetoxy]-1-phenethyl-1-azoniabicyclo[2.2.2]octane trifluoroacetate] yielded an inhibition at 0.1 µM of 68.5% and an inhibition at 0.01 µM of 51.3%.

In the case of `O=C(O[C@H]1C[N+]2(CCc3ccccc3)CCC1CC2)[C@@](O)(c1cccs1)C1CCCCC1` [Example 92, (3R)-3-[(2R)-2-Cyclohexyl-2-hydroxy-2-thien-2-ylacetoxy]-1-phenethyl-1-azoniabicyclo[2.2.2]octane trifluoroacetate], the inhibition at 0.1 µM was 69.4% and the inhibition at 0.01 µM was 49.2%.

With `CC(C)[N+]1(C)[C@@H]2CC[C@H]1C[C@@H](OC(=O)C(CO)c1ccccc1)C2` (stereo partly shown) [Ipratropium bromide, reference compound] the inhibition at 0.1 µM was 93.8% and the inhibition at 0.01 µM was 67.2%.
